# According to patent publication US20260317319A1, “NOVEL ERGOLINES AND METHODS OF TREATING MOOD DISORDERS” (Gilgamesh Pharma Inc., priority 2023, published 2026):
# pKi: −log10 of the molar value.
# Experiments:
# C57BL/6 mice [1] = assay: Automated mouse head twitch response (HTR) assay (video tracking); type: in vivo; conditions: for # HTR/20 min at Most Efficacious Dose / Most Efficacious Dose for Peak HTR/min / Most Efficacious Dose for # HTR/20 min / Peak HTR/min at Most Efficacious Dose: sc
# Method: Disclosed compounds were tested for their ability to induce a head twitch response (HTR) in mice using an automated video tracking procedure, with the results summarized in Table 8 and FIG. 4.
# Animals. Adult male C57BL/6 mice aged 8-10 weeks (Jackson Labs, Bar Harbor, ME; body weight 18-25 g) were used in this experiment. Animals were group housed under environmentally controlled temperatures and 12-hour light/dark cycles (lights on between 06:00-18:00 h), with ad libitum food and water. Mice were habituated to the facility for at least 5 days prior to testing. All animal procedures were approved by the local IACUC and conducted in accordance with the NIH Guide for the Care and Use of Laboratory Animals.
# Procedure. Mice were administered one dose of the drug and immediately placed into a small open field for behavioral observation. High-speed video of animals' behavior was captured continuously for 20 min. Video recordings were imported into an image processing software, which detects multiple points of interest on each animal's body, including the left and right ear. HTR events were defined as periodic deviations of ear locations from temporally averaged ear locations. Predefined thresholds for magnitude and frequency of location deviations were used to filter HTR events from random head movements. The method was validated by comparing detected events with manual (human) observations and found to have an accuracy >95%. The total number of HTR events counted during the 20-min recording and the rate in HTR/min calculated over 2-min bins were determined for each animal at each dose.
# Statistical Analysis. The data points shown are the mean±standard error of the mean (SEM).
# 5-HT2B receptor = biological target: T1, 5-HT2B receptor (Homo sapiens, UniProt P41595); assay: 5-HT2B receptor radioligand binding ([3H]LSD); conditions: read-out: 5-HT2B Receptor Ki
# T1 construct: expressed in transfected cells; host or cells: HEK293, stably transfected
# C57BL/6 mice [2] = assay: Mouse head twitch response (HTR) assay (observer-counted); type: in vivo; conditions: SC
# Method: Agonists of the 5-HT2A receptor are well known to induce this effect in rodents and the potency of this HTR is correlated with hallucinogenic potency in humans.
# Animals. Adult male C57BL/6 mice, aged 6-8 weeks (body weight 20-25 g) were used in this experiment. Animals were housed under controlled temperatures and 12-hour light/dark cycles (lights on between 07:00-19:00 h), with ad libitum food and water. This study was carried out in strict accordance with the requirements of the Committee for the Purpose of Control and Supervision of Experiments on Animals (CPCSEA), India. All efforts were made to minimize suffering.
# Procedure. Mice were administered one dose of the drug and immediately placed into a small open field for behavioral observation. Animals were observed continuously for 20 mins and the number of head twitches (HTs) were counted by an observer blind to the treatment condition.
# Statistical Analysis. The data points shown are the mean±standard error of the mean (SEM). Analysis was performed using GraphPad Prism 6. Curves were fit using a non-linear gaussian distribution to calculate ED50 and Emax values.
# Additional disclosed compounds were tested in the mouse head twitch response (HTR) assay according to the procedure described in Example 57 (administered SC). […] Lastly, compounds with much larger benzyl and phenethyl substituents on the amine nitrogen (e.g., 10 and 11) were low efficacy in this assay, consistent with their bias toward arrestin signaling (see Example 55).
# [3] = biological target: T2, Alpha2A adrenergic receptor (Homo sapiens, UniProt P08913); assay: Ca2+ flux functional assay at Alpha2A; type: cell-based; conditions: for maximal efficacy at Alpha2A: "higher" is compared to the N-methyl compound LSD
# T2 construct: expressed in transfected cells
# T2 sequence (P08913 1-465): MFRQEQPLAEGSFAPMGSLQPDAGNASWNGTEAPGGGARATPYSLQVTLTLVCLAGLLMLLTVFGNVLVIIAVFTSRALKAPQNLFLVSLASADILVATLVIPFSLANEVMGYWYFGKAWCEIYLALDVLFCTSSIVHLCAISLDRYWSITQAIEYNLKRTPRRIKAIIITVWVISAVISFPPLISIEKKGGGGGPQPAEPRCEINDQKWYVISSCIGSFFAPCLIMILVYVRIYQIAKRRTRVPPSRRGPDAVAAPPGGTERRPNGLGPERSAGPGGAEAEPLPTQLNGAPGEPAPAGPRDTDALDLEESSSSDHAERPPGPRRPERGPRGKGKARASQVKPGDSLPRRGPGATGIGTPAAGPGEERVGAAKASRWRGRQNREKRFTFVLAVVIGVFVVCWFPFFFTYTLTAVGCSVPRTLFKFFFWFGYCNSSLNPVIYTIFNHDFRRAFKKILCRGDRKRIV
# Method: Functional Assays at Adrenergic and Dopamine Receptors. Agonist activity at Alpha1A, Alpha2A, D1, and D2 receptors was determined using a FLIPR Ca^2+ flux assay at WuXi AppTec (Hong Kong) Limited according to their standard protocols. Briefly, stably transfected cells expressing the receptor of interest were grown and plated in a 384 well plate and incubated at 37° C. and 5% CO2 overnight. A solution of 250 mM probenecid in 1 mL FLIPR assay buffer was prepared fresh. This was combined with a fluorescent dye (Fluo-4 Direct™) to make a final assay concentration of 2.5 mM. […] The fluorescent dye was then added to the assay plate along with assay buffer to a final volume of 40 μL. The cell plate was incubated for 50 min at 37° C. and 5% CO2 and placed into the FLIPR Tetra along with the compound plate. 10 μL of references and compounds were then transferred from the compound plate into the cell plate and the fluorescent signal was read.
# D1 dopamine receptor = biological target: T3, D1 dopamine receptor (Homo sapiens, UniProt P21728); assay: Ca2+ flux functional assay at D1; type: cell-based; conditions: agonist, max dose, read-out: D1 % Act @ Max Dose
# T3 construct: expressed in transfected cells
# Method: Disclosed compounds were tested for agonist activity at several adrenergic (Alpha1A and Alpha2A) and dopamine (D1 and D2) receptor subtypes using Ca^2+ flux functional assays, with the results summarized in Table 6. Selectivity for the 5-HT2A receptor over these other targets varied depending on the specific target and compound.
# Functional Assays at Adrenergic and Dopamine Receptors. Agonist activity at Alpha1A, Alpha2A, D1, and D2 receptors was determined using a FLIPR Ca^2+ flux assay at WuXi AppTec (Hong Kong) Limited according to their standard protocols. Briefly, stably transfected cells expressing the receptor of interest were grown and plated in a 384 well plate and incubated at 37° C. and 5% CO2 overnight. A solution of 250 mM probenecid in 1 mL FLIPR assay buffer was prepared fresh. This was combined with a fluorescent dye (Fluo-4 Direct™) to make a final assay concentration of 2.5 mM. Compounds were diluted 1:3.16 for 10 points and 750 nL was added to a 384 well compound plate using ECHO along with 30 μL assay buffer. The fluorescent dye was then added to the assay plate along with assay buffer to a final volume of 40 μL. The cell plate was incubated for 50 min at 37° C. and 5% CO2 and placed into the FLIPR Tetra along with the compound plate. 10 μL of references and compounds were then transferred from the compound plate into the cell plate and the fluorescent signal was read.
# [4] = 20 min recording, mean, at each compound's most efficacious dose (35*, 43*, 44*: suppressed below vehicle 14.5, dose is that of least suppression)
# [5] = dose giving highest peak HTR/min (35*, 43*, 44*: dose that resulted in the least suppression)
# [6] = dose giving most HTR/20 min (35*, 43*, 44*: dose that resulted in the least suppression)
# [7] = rate over 2-min bins, mean, at each compound's most efficacious dose (35*, 43*, 44*: suppressed below vehicle 1.62, dose is that of least suppression)
# T1 sequence (P41595 whole entry): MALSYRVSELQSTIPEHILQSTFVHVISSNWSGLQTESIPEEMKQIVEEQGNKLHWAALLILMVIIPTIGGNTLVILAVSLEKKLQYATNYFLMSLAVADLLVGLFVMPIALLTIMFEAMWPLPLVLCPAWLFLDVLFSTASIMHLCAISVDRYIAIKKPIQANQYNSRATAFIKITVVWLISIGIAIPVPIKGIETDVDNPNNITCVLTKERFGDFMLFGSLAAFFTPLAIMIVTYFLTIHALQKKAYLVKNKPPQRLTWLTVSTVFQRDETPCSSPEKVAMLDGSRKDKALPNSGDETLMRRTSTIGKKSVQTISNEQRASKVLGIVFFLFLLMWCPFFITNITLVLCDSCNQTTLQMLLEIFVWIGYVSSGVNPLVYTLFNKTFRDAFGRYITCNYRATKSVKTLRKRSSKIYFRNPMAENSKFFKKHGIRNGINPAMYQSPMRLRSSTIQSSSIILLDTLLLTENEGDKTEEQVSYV
# T3 sequence (P21728 whole entry): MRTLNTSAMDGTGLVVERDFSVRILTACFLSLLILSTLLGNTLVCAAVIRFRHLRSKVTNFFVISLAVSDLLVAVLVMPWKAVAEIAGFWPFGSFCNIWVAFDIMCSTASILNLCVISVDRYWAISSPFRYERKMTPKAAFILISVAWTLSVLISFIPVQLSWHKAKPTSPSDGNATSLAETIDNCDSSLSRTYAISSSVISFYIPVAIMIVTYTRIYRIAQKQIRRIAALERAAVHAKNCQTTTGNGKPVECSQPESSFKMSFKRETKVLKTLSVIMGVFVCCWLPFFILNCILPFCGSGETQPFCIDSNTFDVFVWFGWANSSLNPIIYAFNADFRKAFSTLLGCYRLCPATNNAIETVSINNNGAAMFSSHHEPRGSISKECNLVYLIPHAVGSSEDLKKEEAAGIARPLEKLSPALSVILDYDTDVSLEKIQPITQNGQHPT
Structure (SMILES),# HTR/20 min at Most Efficacious Dose (C57BL/6 mice [1]; [4]),Most Efficacious Dose for Peak HTR/min (C57BL/6 mice [1]; [5]),Most Efficacious Dose for # HTR/20 min (C57BL/6 mice [1]; [6]),Peak HTR/min at Most Efficacious Dose (C57BL/6 mice [1]; [7]),pKi (5-HT2B receptor),HTR at most efficacious dose (bound) (C57BL/6 mice [2]; 20 min),also measured
"CCN(CC)C(=O)[C@@H]1C=C2c3cccc4[nH]cc(c34)C[C@H]2N(Cc2ccccc2)C1 [Compound 82, (6aR,9R)-7-benzyl-N,N-diethyl-4,6,6a,7,8,9-hexahydroindolo[4,3-fg]quinoline-9-carboxamide]",11.25 HTR/20 min,"(0.1) mg/kg, sc","(0.1) mg/kg, sc",0.56 HTR/min,,,
"CCN(CC)C(=O)[C@@H]1C=C2c3cccc4[nH]cc(c34)C[C@H]2N(Cc2cccc(OC)c2)C1 [Compound 18, (6aR,9R)—N,N-diethyl-7-(3-methoxybenzyl)-4,6,6a,7,8,9-hexahydroindolo[4,3-fg]quinoline-9-carboxamide]",7.62 HTR/20 min,"(0.1) mg/kg, sc","(3.2) mg/kg, sc",1.12 HTR/min,6.73,,
"CCCN1C[C@H](C(=O)N[C@H](C)CC)C=C2c3cccc4[nH]cc(c34)C[C@H]21 [Compound 3, (6aR,9R)—N—((R)-sec-butyl)-7-propyl-4,6,6a,7,8,9-hexahydroindolo[4,3-fg]quinoline-9-carboxamide]",,,,,,> 15 HTR,"# HTR/20 min at Most Efficacious Dose (C57BL/6 mice [2]; most efficacious dose 0.32 mg/kg): 27.0 HTR/20 min; maximal efficacy at Alpha2A [3]: substantially higher maximal efficacy; Emax ([3]; agonist, Ca2+ flux, max dose, read-out: Alpha 2A % Act @ Max Dose): 96.8%; Emax (D1 dopamine receptor): 121%"
"CCN(CC)C(=O)[C@@H]1C=C2c3cccc4[nH]cc(c34)C[C@H]2N(Cc2ccc(OC)cc2)C1 [Compound 19, (6aR,9R)—N,N-diethyl-7-(4-methoxybenzyl)-4,6,6a,7,8,9-hexahydroindolo[4,3-fg]quinoline-9-carboxamide]",9.50 HTR/20 min,"(1) mg/kg, sc","(10) mg/kg, sc",1.31 HTR/min,6.65,,
"CCCN1C[C@H](C(=O)NC(CC)CC)C=C2c3cccc4[nH]cc(c34)C[C@H]21 [Compound 6, (6aR,9R)—N-(pentan-3-yl)-7-propyl-4,6,6a,7,8,9-hexahydroindolo[4,3-fg]quinoline-9-carboxamide]",,,,,,> 15 HTR,maximal efficacy at Alpha2A [3]: substantially higher maximal efficacy; Emax (D1 dopamine receptor): 93.1%
"CCN(C)C(=O)[C@@H]1C=C2c3cccc4[nH]cc(c34)C[C@H]2N(Cc2ccccc2)C1 [Compound 85, (6aR,9R)-7-benzyl-N-ethyl-N-methyl-4,6,6a,7,8,9-hexahydroindolo[4,3-fg]quinoline-9-carboxamide]",6.625 HTR/20 min,"(0.32) mg/kg, sc","(0.32) mg/kg, sc",0.33 HTR/min,7.49,,
"CCN(CC)C(=O)[C@@H]1C=C2c3cccc4[nH]cc(c34)C[C@H]2N(Cc2ccc(Cl)cc2)C1 [Compound 50, (6aR,9R)-7-(4-chlorobenzyl)-N,N-diethyl-4,6,6a,7,8,9-hexahydroindolo[4,3-fg]quinoline-9-carboxamide]",,,,,7.27,,
CC[C@@H](C)NC(=O)[C@@H]1C=C2c3cccc4[nH]cc(c34)C[C@H]2N(C)C1 [Int8],23.625 HTR/20 min,"(0.32) mg/kg, sc","(0.32) mg/kg, sc",2.06 HTR/min,,< 15 HTR,
"CCN(CC)C(=O)[C@@H]1C=C2c3cccc4[nH]cc(c34)C[C@H]2N(CCc2ccccc2OC)C1 [Compound 11, (6aR,9R)—N,N-diethyl-7-(2-methoxyphenethyl)-4,6,6,7,8,9-hexahydroindolo[4,3-fg]quinoline-9-carboxamide]",,,,,,,"ED50 (HTR) (C57BL/6 mice [2]; 20 min, curve fit poor in some cases): 2.205 mg/kg; Emax, HTR/20 min (C57BL/6 mice [2]; curve fit poor in some cases): 19.79 HTR/20 min; efficacy in HTR assay (C57BL/6 mice [2]; maximal effect): low efficacy; # HTR/20 min at Most Efficacious Dose (C57BL/6 mice [2]; most efficacious dose 3.2 mg/kg): 12.0 HTR/20 min; maximal efficacy at Alpha2A [3]: very low efficacy agonists"
"CCN(CC)C(=O)[C@@H]1C=C2c3cccc4[nH]cc(c34)C[C@H]2N(C)C1 [LSD, lysergic acid diethylamide, reference compound]",,,,,,,"head twitch response, automated (C57BL/6 mice [1]; in vivo): potent and robust increase in HTRs; # HTR/20 min at Most Efficacious Dose (C57BL/6 mice [1]; in vivo): 44.62 HTR/20 min; Most Efficacious Dose for # HTR/20 min (C57BL/6 mice [1]; in vivo): (0.1) mg/kg, sc; Most Efficacious Dose for Peak HTR/min (C57BL/6 mice [1]; in vivo): (0.032) mg/kg, sc; Peak HTR/min at Most Efficacious Dose (C57BL/6 mice [1]; in vivo): 4.13 HTR/min; Emax (D1 dopamine receptor): 94.9%"
"CCN(CC)C(=O)[C@@H]1C=C2c3cccc4[nH]cc(c34)C[C@H]2N(Cc2ccc(F)cc2)C1 [Compound 49, (6aR,9R)—N,N-diethyl-7-(4-fluorobenzyl)-4,6,6a,7,8,9-hexahydroindolo[4,3-fg]quinoline-9-carboxamide]",,,,,7.77,,
"C=CCN1C[C@H](C(=O)N[C@H](C)CC)C=C2c3cccc4[nH]cc(c34)C[C@H]21 [Compound 8, (6aR,9R)-7-allyl-N—((R)-sec-butyl)-4,6,6a,7,8,9-hexahydroindolo[4,3-fg]quinoline-9-carboxamide]",21.375 HTR/20 min,"(3.2) mg/kg, sc","(1) mg/kg, sc",2.14 HTR/min,,> 15 HTR,
